Assay results reported in US11739098B2 (BRISTOL-MYERS SQUIBB COMPANY, priority 2017, dated 2023).

Assays:
Assay type in all cases: cell-based
human TLR7 = target: T1, human TLR7 (Homo sapiens, UniProt Q9NYK1); assay: TLR7 inhibition reporter assay (HEK-Blue cells, SEAP reporter, gardiquimod stimulation); details: HEK-Blue cells overexpressing human TLR7, SEAP reporter, gardiquimod 7.5 μM
T1 construct: host or cells: HEK-Blue cells (HEK293-derived reporter line)
T1 sequence (Q9NYK1 27-1049): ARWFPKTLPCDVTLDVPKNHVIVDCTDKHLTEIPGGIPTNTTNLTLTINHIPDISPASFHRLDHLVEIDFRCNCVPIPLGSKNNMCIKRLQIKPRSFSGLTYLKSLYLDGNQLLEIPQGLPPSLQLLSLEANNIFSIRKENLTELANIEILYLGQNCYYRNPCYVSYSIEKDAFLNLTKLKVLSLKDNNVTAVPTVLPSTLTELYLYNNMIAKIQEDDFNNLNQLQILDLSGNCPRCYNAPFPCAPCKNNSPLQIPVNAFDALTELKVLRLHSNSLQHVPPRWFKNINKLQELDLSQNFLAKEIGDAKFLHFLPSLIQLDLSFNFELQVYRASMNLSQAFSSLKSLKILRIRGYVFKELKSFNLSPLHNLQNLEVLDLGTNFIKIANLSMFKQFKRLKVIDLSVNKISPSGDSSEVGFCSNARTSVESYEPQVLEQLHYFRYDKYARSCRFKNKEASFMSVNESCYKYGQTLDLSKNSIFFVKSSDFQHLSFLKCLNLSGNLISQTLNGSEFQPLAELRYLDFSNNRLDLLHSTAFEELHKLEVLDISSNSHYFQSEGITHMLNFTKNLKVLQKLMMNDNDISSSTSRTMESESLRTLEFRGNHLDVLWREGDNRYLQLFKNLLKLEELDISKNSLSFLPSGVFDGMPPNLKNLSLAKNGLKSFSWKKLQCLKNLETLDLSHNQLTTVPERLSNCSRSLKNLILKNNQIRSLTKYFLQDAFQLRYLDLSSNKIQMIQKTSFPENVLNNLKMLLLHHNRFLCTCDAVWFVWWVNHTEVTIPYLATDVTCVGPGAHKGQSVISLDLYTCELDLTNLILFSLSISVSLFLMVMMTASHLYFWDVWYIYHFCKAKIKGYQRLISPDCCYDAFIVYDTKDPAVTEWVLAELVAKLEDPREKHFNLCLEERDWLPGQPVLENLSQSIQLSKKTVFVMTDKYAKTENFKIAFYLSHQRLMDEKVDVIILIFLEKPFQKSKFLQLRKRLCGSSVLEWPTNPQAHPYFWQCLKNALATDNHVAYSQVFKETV
In short: (§1)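 Agonists (final): TLR7 gardiquimod 7.5 μM; TLR8 R848 15.9 μM; TLR9 ODN2006 5 nM. HEK-Blue reporter cells, 30 min RT compound pre-incubation, 0.05 nM–50 μM dose range, 22 h at 37 °C, colorimetric SEAP detection medium. % inhibition relative to agonist+DMSO and known-inhibitor wells.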

human TLR8 = target: T2, human TLR8 (Homo sapiens, UniProt Q9NR97); assay: TLR8 inhibition reporter assay (HEK-Blue cells, SEAP reporter, R848 stimulation); details: HEK-Blue cells overexpressing human TLR8, SEAP reporter, R848 15.9 μM
T2 construct: host or cells: HEK-Blue cells (HEK293-derived reporter line)
T2 sequence (Q9NR97 27-1041): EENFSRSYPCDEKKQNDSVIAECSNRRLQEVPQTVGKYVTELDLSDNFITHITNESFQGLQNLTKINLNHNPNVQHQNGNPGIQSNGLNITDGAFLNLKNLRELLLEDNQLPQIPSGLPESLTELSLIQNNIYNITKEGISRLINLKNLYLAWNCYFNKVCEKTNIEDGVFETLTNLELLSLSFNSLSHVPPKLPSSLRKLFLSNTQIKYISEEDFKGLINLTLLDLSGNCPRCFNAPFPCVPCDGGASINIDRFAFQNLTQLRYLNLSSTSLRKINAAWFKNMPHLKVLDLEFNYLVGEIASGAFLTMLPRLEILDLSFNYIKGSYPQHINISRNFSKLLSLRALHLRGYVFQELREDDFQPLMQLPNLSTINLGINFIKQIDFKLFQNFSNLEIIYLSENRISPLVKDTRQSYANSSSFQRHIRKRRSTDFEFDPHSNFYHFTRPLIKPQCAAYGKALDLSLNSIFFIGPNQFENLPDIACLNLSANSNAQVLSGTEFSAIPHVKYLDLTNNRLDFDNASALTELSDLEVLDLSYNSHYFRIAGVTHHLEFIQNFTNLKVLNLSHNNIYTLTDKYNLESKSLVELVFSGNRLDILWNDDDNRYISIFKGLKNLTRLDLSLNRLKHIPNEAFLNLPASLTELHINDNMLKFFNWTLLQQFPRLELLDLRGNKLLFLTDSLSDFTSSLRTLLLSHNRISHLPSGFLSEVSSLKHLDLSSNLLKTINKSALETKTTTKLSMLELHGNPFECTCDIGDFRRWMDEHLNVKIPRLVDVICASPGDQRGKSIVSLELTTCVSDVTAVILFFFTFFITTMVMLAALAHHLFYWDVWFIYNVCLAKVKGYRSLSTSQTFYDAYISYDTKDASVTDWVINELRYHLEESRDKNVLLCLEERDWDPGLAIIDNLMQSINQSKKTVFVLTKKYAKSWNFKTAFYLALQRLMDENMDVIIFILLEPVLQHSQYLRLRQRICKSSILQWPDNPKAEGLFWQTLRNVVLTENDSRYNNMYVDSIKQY
In short: as §1

human TLR9 = target: T3, human TLR9 (Homo sapiens, UniProt Q9NR96); assay: TLR9 inhibition reporter assay (HEK-Blue cells, SEAP reporter, ODN2006 stimulation); details: HEK-Blue cells overexpressing human TLR9, SEAP reporter, ODN2006 5 nM
T3 construct: host or cells: HEK-Blue cells (HEK293-derived reporter line)
T3 sequence (Q9NR96 26-1032): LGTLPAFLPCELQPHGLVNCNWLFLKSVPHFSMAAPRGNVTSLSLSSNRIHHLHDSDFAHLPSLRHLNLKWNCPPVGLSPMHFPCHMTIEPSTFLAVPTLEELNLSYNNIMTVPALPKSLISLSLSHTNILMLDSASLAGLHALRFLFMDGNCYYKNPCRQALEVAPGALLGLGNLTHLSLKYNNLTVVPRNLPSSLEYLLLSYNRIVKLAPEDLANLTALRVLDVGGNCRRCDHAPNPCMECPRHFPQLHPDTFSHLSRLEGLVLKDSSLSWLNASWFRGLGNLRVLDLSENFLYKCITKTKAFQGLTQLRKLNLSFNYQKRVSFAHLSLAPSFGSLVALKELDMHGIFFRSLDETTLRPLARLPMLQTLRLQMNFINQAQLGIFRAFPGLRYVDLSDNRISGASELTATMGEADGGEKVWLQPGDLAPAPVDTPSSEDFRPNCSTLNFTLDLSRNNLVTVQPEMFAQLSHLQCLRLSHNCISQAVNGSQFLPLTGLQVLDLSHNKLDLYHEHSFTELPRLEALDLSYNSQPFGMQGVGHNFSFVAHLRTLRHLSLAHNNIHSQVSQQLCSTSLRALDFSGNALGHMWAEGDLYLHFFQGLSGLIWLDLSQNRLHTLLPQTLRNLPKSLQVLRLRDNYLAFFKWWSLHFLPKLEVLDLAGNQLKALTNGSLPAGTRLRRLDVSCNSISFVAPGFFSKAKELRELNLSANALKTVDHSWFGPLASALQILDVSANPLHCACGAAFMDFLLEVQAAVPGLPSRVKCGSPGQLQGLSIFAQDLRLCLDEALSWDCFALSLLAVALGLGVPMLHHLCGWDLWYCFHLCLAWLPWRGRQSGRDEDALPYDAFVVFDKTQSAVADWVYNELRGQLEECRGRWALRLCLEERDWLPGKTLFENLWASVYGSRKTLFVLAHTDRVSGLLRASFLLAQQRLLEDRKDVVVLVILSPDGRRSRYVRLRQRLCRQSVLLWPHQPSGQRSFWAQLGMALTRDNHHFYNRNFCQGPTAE
In short: as §1

COc1cc(-c2[nH]c3ccc(C4CCN(C5CCOCC5)CC4)cc3c2C(C)C)cn2ccnc12 [Example 706, 6-(3-isopropyl-5-(1-(tetrahydro-2H-pyran-4-yl)piperidin-4-yl)-1H-indol-2-yl)-8-methoxyimidazo[1,2-a]pyridine]
IC50 (human TLR7): < 100 nM
IC50 (human TLR8): < 100 nM
IC50 (human TLR9): 100 to 1000 nM

CC(C)c1c(-c2ccc3cnnn3c2)[nH]c2ccc(C3CCN(C(=O)CN(C)C)CC3)cc12 [Example 464, 1-(4-(2-([1,2,3]triazolo[1,5-a]pyridin-6-yl)-3-isopropyl-1H-indol-5-yl)piperidin-1-yl)-2-(dimethylamino)ethan-1-one]
IC50 (human TLR7): 100 to 1000 nM
IC50 (human TLR8): 100 to 1000 nM
IC50 (human TLR9): 100 to 1000 nM

CC(C)c1c(-c2cc(CO)c3nccn3c2)[nH]c2ccc(C3CCN(CC(=O)N(C)C)CC3)cc12 [Example 329, 2-(4-(2-(8-(hydroxymethyl)imidazo [1,2-a]pyridin-6-yl)-3-isopropyl-1H-indol-5-yl)piperidin-1-yl)-N,N-dimethylacetamide]
IC50 (human TLR7): < 100 nM
IC50 (human TLR8): < 100 nM
IC50 (human TLR9): 100 to 1000 nM

Cc1nc2cc(-c3[nH]c4ccc(C5CCN(CC(=O)N(C)C)CC5)cc4c3C(C)C)ccn2n1 [Example 326, 2-(4-(3-isopropyl-2-(2-methyl-[1,2,4]triazolo[1,5-a]pyridin-7-yl)-1H-indol-5-yl)piperidin-1-yl)-N,N-dimethylacetamide]
IC50 (human TLR7): < 100 nM
IC50 (human TLR8): 100 to 1000 nM
IC50 (human TLR9): 1000 to 50000 nM

Cc1cc(-c2[nH]c3ccc(C4CCN(C5COC5)CC4)cc3c2C(C)C)c2ccccc2n1 [Example 725, 4-(3-isopropyl-5-(1-(oxetan-3-yl)piperidin-4-yl)-1H-indol-2-yl)-2-methylquinoline]
IC50 (human TLR7): < 100 nM
IC50 (human TLR8): 100 to 1000 nM
IC50 (human TLR9): 1000 to 50000 nM

CC(C)c1c(-c2cn3ccnc3cc2Cl)[nH]c2ccc(C3CCNCC3)cc12 [Example 128, 7-chloro-6-(3-isopropyl-5-(piperidin-4-yl)-1H-indol-2-yl)imidazo[1,2-a]pyridine]
IC50 (human TLR7): < 100 nM
IC50 (human TLR8): < 100 nM
IC50 (human TLR9): 1000 to 50000 nM

CC(C)c1c(-c2cccn3ncnc23)[nH]c2ccc(C3CCN(CC(=O)N(C)C)CC3)cc12 [Example 362, 2-(4-(2-5 ([1,2,4]triazolo[1,5-a]pyridin-8-yl)-3-isopropyl-1H-indol-5-yl)piperidin-1-yl)-N,N-dimethylacetamide]
IC50 (human TLR7): 100 to 1000 nM
IC50 (human TLR8): 100 to 1000 nM
IC50 (human TLR9): 1000 to 50000 nM

CC(C)c1c(-c2cnc3c(cnn3C)c2)[nH]c2ccc(C3CCN(C(=O)CN(C)C)CC3)cc12 [Example 504, 2-(dimethylamino)-1-(4-(3-isopropyl-2-(1-methyl-1H-pyrazolo[3,4-b]pyridin-5-yl)-1H-indol-5-yl)piperidin-1-yl)ethan-1-one]
IC50 (human TLR7): < 100 nM
IC50 (human TLR8): 100 to 1000 nM
IC50 (human TLR9): 1000 to 50000 nM

Cc1cc(-c2[nH]c3ccc(C4CCN(C(=O)CN5C[C@H]6CC[C@@H](C5)O6)CC4)cc3c2C(C)C)cn2nnnc12 [Example 484, 2-((1R,5S)-8-oxa-3-azabicyclo[3.2.1]octan-3-yl)-1-(4-(3-isopropyl-2-(8-methyltetrazolo[1,5-a]pyridin-6-yl)-1H-indol-5-yl)piperidin-1-yl)ethan-1-one]
IC50 (human TLR7): < 100 nM
IC50 (human TLR8): < 100 nM
IC50 (human TLR9): 1000 to 50000 nM

CC(C)c1c(-c2ccnc3[nH]ncc23)[nH]c2ccc(C3CCN(C4CCNCC4O)CC3)cc12 (stereo not drawn) [Example 804, 4-(3-isopropyl-2-(1H-pyrazolo[3,4-b]pyridin-4-yl)-1H-indol-5-yl)-[1,4′-bipiperidin]-3′-ol]
IC50 (human TLR7): < 100 nM
IC50 (human TLR8): < 100 nM
IC50 (human TLR9): 100 to 1000 nM

CC(C)c1c(-c2ccnc3[nH]ncc23)[nH]c2ccc(C3CCN(C(=O)CN(C)C(C)C)CC3)cc12 [Example 585, 2-(isopropyl(methyl)amino)-1-(4-(3-isopropyl-2-(1H-pyrazolo[3,4-b]pyridin-4-yl)-1H-indol-5-yl)piperidin-1-yl)ethan-1-one]
IC50 (human TLR7): < 100 nM
IC50 (human TLR8): < 100 nM
IC50 (human TLR9): 1000 to 50000 nM

Cc1cc(-c2[nH]c3ccc(C4CCN(CC(C)(C)O)CC4)cc3c2C(C)C)cc2cccnc12 [Example 771, 1-(4-(3-isopropyl-2-(8-methylquinolin-6-yl)-1H-indol-5-yl)piperidin-1-yl)-2-methylpropan-2-ol]
IC50 (human TLR7): < 100 nM
IC50 (human TLR8): < 100 nM
IC50 (human TLR9): 1000 to 50000 nM

Cc1cn2cc(-c3[nH]c4ccc(C5CCN(CC(=O)N(C)C)CC5)cc4c3CC(F)F)ccc2n1 [Example 416, 2-(4-(3-(2,2-difluoroethyl)-2-(2-methylimidazo[1,2-a]pyridin-6-yl)-1H-indol-5-yl)piperidin-1-yl)-N,N-dimethylacetamide]
IC50 (human TLR7): < 100 nM
IC50 (human TLR8): > 3130 nM
IC50 (human TLR9): < 100 nM

CCc1c(-c2ccc3onc(N)c3c2)[nH]c2ccc(C3CCNCC3)cc12 [Example 95, 5-(3-ethyl-5-(piperidin-4-yl)-1H-indol-2-yl)benzo[d]isoxazol-3-amine]
IC50 (human TLR7): 1000 to 50000 nM
IC50 (human TLR8): 100 to 1000 nM
IC50 (human TLR9): 1000 to 50000 nM
